# Reference: US20020137929A1, “1 - (3-heterocyclylphenyl) isothiourea, -isourea, -guanidine and -amidine herbicidal agents” (Intellectual Property Department, BASF Aktiengesellschaft, priority 1998, published 2002)
# Key:
# GALAP (Galium) = test: Postemergence herbicidal evaluation; format: in vivo, Galium aparine; details: postemergence
# Outline: (§1)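 Two-week-old seedlings sprayed with compound in 50/50 acetone/water plus 0.5% TWEEN 20, at about 0.0156 to 0.500 kg/ha, nozzle at 40 psi. Kept in greenhouse; rated visually 4-5 weeks after treatment on a 0-9 scale versus control, repeat tests averaged.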
# CASOB (Sicklepod) = test: Postemergence herbicidal evaluation; format: in vivo, Cassia obtusifolia; details: postemergence
# Outline: as §1
# [1] = test system: CHEAL (Lambsquarters, Common); test: Preemergence herbicidal evaluation; format: in vivo, Chenopodium album; details: rated 4-5 weeks after treatment
# Outline: (§2)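 Greenhouse preemergence test: seed-soil mix sown on ~1 inch soil; aqueous acetone spray at equivalent of ~0.0156–0.500 kg/ha; greenhouse-held and watered; scored 0–9 visually at 4–5 weeks.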
# ORYSAT (Rice, Tebonnet) = test: Preemergence herbicidal evaluation; format: in vivo, Oryza sativa, (L.) Tebonnet; details: rated 4-5 weeks after treatment
# Outline: as §2
# ZEAMX (Corn, Field) [2] = test: Preemergence herbicidal evaluation; format: in vivo, Zea mays; details: rated 4-5 weeks after treatment
# Outline: as §2
# AMBEL (Ragweed, Common) = test: Preemergence herbicidal evaluation; format: in vivo, Ambrosia artemisifolia; details: rated 4-5 weeks after treatment
# Outline: as §2
# CYPIR (Rice Flatsedge) = test: Preemergence weed control under flooded paddy conditions; format: in vivo, Cyperus iria; details: rated 3-4 weeks after treatment
# Outline: (§3)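 Flooded-pot preemergence screen with silt loam and seeds in the upper 0.5 cm. Dose about 0.0313 to 0.500 kg/ha, delivered into flood water; visual 0-9 score after 3 to 4 weeks.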
# [3] = test system: IPOHE (Morningglory, Ivyleaf); test: Preemergence herbicidal evaluation; format: in vivo, Ipomoea hederacea; details: rated 4-5 weeks after treatment
# Outline: as §2
# ZEAMX (Corn, Field) [4] = test: Postemergence herbicidal evaluation; format: in vivo, Zea mays; details: postemergence
# Outline: as §1
# [5] = test system: TRZAWR (Wheat, Winter, cv Riband); test: Preemergence herbicidal evaluation; format: in vivo, Triticum aestivum; details: rated 4-5 weeks after treatment
# Outline: as §2
# [6] = test system: ECHORC (Watergrass (Calif.)); test: Preemergence weed control under flooded paddy conditions; format: in vivo, Echinochloa oryzoides; details: rated 3-4 weeks after treatment
# Outline: as §3
# [7] = test system: ECHORC (Watergrass (Calif.)); test: Postemergence weed control under flooded paddy conditions; format: in vivo, Echinochloa oryzoides; details: postemergence weeds, rated 3 to 4 weeks after treatment
# Outline: (§4)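 Weeds 3 to 5 cm tall and rice seedlings at the 1.5 to 2.5 leaf stage were flooded, with water held 1.5 to 3 cm above the soil. Compounds in 50/50 v/v aqueous/acetone went into the flood water at about 0.0313 to 0.500 kg/ha. Visual 0-9 ratings versus control were made 3 to 4 weeks later.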
# CYPSE (Flatsedge) [8] = test: as above; format: in vivo, Cyperus serotinus; details: postemergence weeds, rated 3 to 4 weeks after treatment
# Outline: as §4
# CYPSE (Flatsedge) [9] = test: Preemergence weed control under flooded paddy conditions; format: in vivo, Cyperus serotinus; details: rated 3-4 weeks after treatment
# Outline: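 Ratings on a 0-9 visual scale cover stand, vigor, malformation, size, chlorosis and overall appearance relative to a control, taken three to four weeks post-treatment. Application was into flood water over freshly sown silt loam at roughly 0.0313 to 0.500 kg/ha.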
structure (smiles),measurement,setting,value
"Cn1c(C(F)(F)F)cc(=O)n(-c2cc(N=C3SCC(=O)N3[C@H](Cc3ccccc3)C(=O)O)c(Cl)cc2F)c1=O [Compound 69, α-Benzyl-2-{{2-chloro-5-[3,6-dihydro-3-methyl-2,6-dioxo-4-(trifluoromethyl)-1(2H)-pyrimidinyl]-4-fluorophenyl}imino}-4-oxo-3-thiazolidineacetic acid, D-]",GALAP herbicidal rating,GALAP (Galium); rate 0.0158 kg/ha,0.0
same,GALAP herbicidal rating,GALAP (Galium); rate 0.0315 kg/ha,1.0
same,GALAP herbicidal rating,GALAP (Galium); rate 0.0630 kg/ha,5.0
same,CASOB herbicidal rating,CASOB (Sicklepod); rate 0.0158 kg/ha,1.0
same,CASOB herbicidal rating,CASOB (Sicklepod); rate 0.0315 kg/ha,2.0
same,CASOB herbicidal rating,CASOB (Sicklepod); rate 0.0630 kg/ha,2.0
same,Preemergence herbicidal rating CHEAL,[1]; rate 0.0156 kg/ha,9.0
same,Preemergence herbicidal rating CHEAL,[1]; rate 0.0313 kg/ha,9.0
same,Preemergence herbicidal rating CHEAL,[1]; rate 0.0625 kg/ha,9.0
same,Preemergence herbicidal rating CHEAL,[1]; rate 0.1250 kg/ha,9.0
same,Preemergence herbicidal rating CHEAL,[1]; rate 0.2500 kg/ha,9.0
same,Preemergence herbicidal rating ORYSAT,"ORYSAT (Rice, Tebonnet); rate 0.0156 kg/ha",0.0
same,Preemergence herbicidal rating ORYSAT,"ORYSAT (Rice, Tebonnet); rate 0.0313 kg/ha",0.0
same,Preemergence herbicidal rating ORYSAT,"ORYSAT (Rice, Tebonnet); rate 0.0625 kg/ha",0.0
same,Preemergence herbicidal rating ORYSAT,"ORYSAT (Rice, Tebonnet); rate 0.1250 kg/ha",1.0
same,Preemergence herbicidal rating ORYSAT,"ORYSAT (Rice, Tebonnet); rate 0.2500 kg/ha",1.0
same,Preemergence herbicidal rating ZEAMX,"ZEAMX (Corn, Field) [2]; rate 0.0156 kg/ha",0.0
same,Preemergence herbicidal rating ZEAMX,"ZEAMX (Corn, Field) [2]; rate 0.0313 kg/ha",0.0
same,Preemergence herbicidal rating ZEAMX,"ZEAMX (Corn, Field) [2]; rate 0.0625 kg/ha",0.0
same,Preemergence herbicidal rating ZEAMX,"ZEAMX (Corn, Field) [2]; rate 0.1250 kg/ha",3.0
same,Preemergence herbicidal rating ZEAMX,"ZEAMX (Corn, Field) [2]; rate 0.2500 kg/ha",3.0
same,Preemergence herbicidal rating AMBEL,"AMBEL (Ragweed, Common); rate 0.0156 kg/ha",0.0
same,Preemergence herbicidal rating AMBEL,"AMBEL (Ragweed, Common); rate 0.0313 kg/ha",4.0
same,Preemergence herbicidal rating AMBEL,"AMBEL (Ragweed, Common); rate 0.0625 kg/ha",5.0
same,Preemergence herbicidal rating AMBEL,"AMBEL (Ragweed, Common); rate 0.1250 kg/ha",9.0
same,Preemergence herbicidal rating AMBEL,"AMBEL (Ragweed, Common); rate 0.2500 kg/ha",7.0
same,CYPIR herbicidal effect rating,CYPIR (Rice Flatsedge); 0.0313 kg/ha,3.0
same,CYPIR herbicidal effect rating,CYPIR (Rice Flatsedge); 0.0625 kg/ha,3.0
same,CYPIR herbicidal effect rating,CYPIR (Rice Flatsedge); 0.1250 kg/ha,3.0
same,CYPIR herbicidal effect rating,CYPIR (Rice Flatsedge); 0.2500 kg/ha,3.0
same,Preemergence herbicidal rating IPOHE,[3]; rate 0.0313 kg/ha,0.0
same,Preemergence herbicidal rating IPOHE,[3]; rate 0.0625 kg/ha,2.0
same,Preemergence herbicidal rating IPOHE,[3]; rate 0.1250 kg/ha,1.0
same,Preemergence herbicidal rating IPOHE,[3]; rate 0.2500 kg/ha,4.0
same,ZEAMX herbicidal rating,"ZEAMX (Corn, Field) [4]; rate 0.0158 kg/ha",4.5
same,ZEAMX herbicidal rating,"ZEAMX (Corn, Field) [4]; rate 0.0315 kg/ha",4.5
same,ZEAMX herbicidal rating,"ZEAMX (Corn, Field) [4]; rate 0.0630 kg/ha",5.5
same,Preemergence herbicidal rating TRZAWR,[5]; rate 0.0156 kg/ha,0.0
same,Preemergence herbicidal rating TRZAWR,[5]; rate 0.0313 kg/ha,0.0
same,Preemergence herbicidal rating TRZAWR,[5]; rate 0.0625 kg/ha,0.0
same,Preemergence herbicidal rating TRZAWR,[5]; rate 0.1250 kg/ha,1.0
same,Preemergence herbicidal rating TRZAWR,[5]; rate 0.2500 kg/ha,1.0
same,ECHORC herbicidal effect rating,[6]; 0.0313 kg/ha,0.0
same,ECHORC herbicidal effect rating,[6]; 0.0625 kg/ha,4.0
same,ECHORC herbicidal effect rating,[6]; 0.1250 kg/ha,5.0
same,ECHORC herbicidal effect rating,[6]; 0.2500 kg/ha,7.0
same,Herbicidal rating ECHORC,[7]; Rate 0.0313 kg/ha,0.0
same,Herbicidal rating ECHORC,[7]; Rate 0.0625 kg/ha,4.0
same,Herbicidal rating ECHORC,[7]; Rate 0.1250 kg/ha,5.0
same,Herbicidal rating ECHORC,[7]; Rate 0.2500 kg/ha,7.0
same,Herbicidal rating CYPSE,CYPSE (Flatsedge) [8]; Rate 0.0313 kg/ha,3.0
same,Herbicidal rating CYPSE,CYPSE (Flatsedge) [8]; Rate 0.0625 kg/ha,3.0
same,Herbicidal rating CYPSE,CYPSE (Flatsedge) [8]; Rate 0.1250 kg/ha,9.0
same,Herbicidal rating CYPSE,CYPSE (Flatsedge) [8]; Rate 0.2500 kg/ha,9.0
same,CYPSE herbicidal effect rating,CYPSE (Flatsedge) [9]; 0.0313 kg/ha,3.0
same,CYPSE herbicidal effect rating,CYPSE (Flatsedge) [9]; 0.0625 kg/ha,3.0
same,CYPSE herbicidal effect rating,CYPSE (Flatsedge) [9]; 0.1250 kg/ha,9.0
same,CYPSE herbicidal effect rating,CYPSE (Flatsedge) [9]; 0.2500 kg/ha,9.0
